Results as given in the supplement of paper PMC10307832.

Columns and labels:
Experiment in all cases: relative viability (nuclei count vs DMSO), 5 days (fraction); higher = more cells survive
AZD6482 + Olaparib = compound: Cc1cc([C@@H](C)Nc2ccccc2C(=O)O)c2nc(N3CCOCC3)cc(=O)n2c1 [AZD6482] + O=C(c1cc(Cc2n[nH]c(=O)c3ccccc23)ccc1F)N1CCN(C(=O)C2CC2)CC1 [Olaparib] (partner 8 µM)
In short: (§1)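 Medians of duplicate plates are given as relative viability. That measure is the nuclei count in treated wells divided by the count in vehicle wells. Counts were taken on 4× images of lung cancer cell lines in 1536-well plates, 5 days after pin-tool dosing the day after seeding with one drug alone or a fixed anchor-drug dose plus five library-drug doses (not always all listed) in √10 steps.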

[1] = compound: COc1cc2nc(N3CCCN(C)CC3)nc(NC3CCN(Cc4ccccc4)CC3)c2cc1OC + C[C@]1(O)C[C@@H](c2nc(-c3ccc4ccc(-c5ccccc5)nc4c3)c3c(N)nccn32)C1 [Linsitinib] (partner 1 µM)
In short: as §1

AZD6482 + Crizotinib = compound: Cc1cc([C@@H](C)Nc2ccccc2C(=O)O)c2nc(N3CCOCC3)cc(=O)n2c1 [AZD6482] + C[C@@H](Oc1cc(-c2cnn(C3CCNCC3)c2)cnc1N)c1c(Cl)ccc(F)c1Cl [Crizotinib] (partner 1 µM)
In short: as §1

AZD6482 + Pemetrexed = compound: Cc1cc([C@@H](C)Nc2ccccc2C(=O)O)c2nc(N3CCOCC3)cc(=O)n2c1 [AZD6482] + Nc1nc2[nH]cc(CCc3ccc(C(=O)N[C@@H](CCC(=O)O)C(=O)O)cc3)c2c(=O)[nH]1 [Pemetrexed] (partner 0.2 µM)
In short: as §1

Cell Line	relative viability (AZD6482 + Olaparib; first compound 0.08 µM)	relative viability (AZD6482 + Olaparib; first compound 0.253 µM)	relative viability (AZD6482 + Olaparib; first compound 0.8 µM)	relative viability (AZD6482 + Olaparib; first compound 2.53 µM)	relative viability (AZD6482 + Olaparib; first compound 8 µM)	relative viability ([1]; first compound 0.2 µM)	relative viability ([1]; first compound 0.6325 µM)	relative viability ([1]; first compound 2 µM)	relative viability ([1]; first compound 6.325 µM)	relative viability (AZD6482 + Crizotinib; first compound 0.08 µM)	relative viability (AZD6482 + Crizotinib; first compound 0.8 µM)	relative viability (AZD6482 + Crizotinib; first compound 2.53 µM)	relative viability (AZD6482 + Crizotinib; first compound 8 µM)	relative viability (AZD6482 + Pemetrexed; first compound 0.08 µM)	relative viability (AZD6482 + Pemetrexed; first compound 0.253 µM)	relative viability (AZD6482 + Pemetrexed; first compound 0.8 µM)	relative viability (AZD6482 + Pemetrexed; first compound 2.53 µM)	relative viability (AZD6482 + Pemetrexed; first compound 8 µM)	relative viability (AZD6482 + Crizotinib; first compound 0.253 µM)
LK-2	0.916	0.731	0.581	0.73	0.432	0.472	0.539	0.624	0.644	0.24	0.263	0.244	0.239	0.276	0.276	0.263	0.193	0.176	
HCC-366	0.328	0.342	0.433	0.259	0.282	0.68	0.642	0.694	0.586	0.304	0.395	0.453	0.472	0.173	0.202	0.204	0.209	0.275	0.447
BEN	0.915	0.934	0.946	0.875	0.816	0.914	0.949	1.04	1.01	0.876	0.913	0.655	0.827	0.766	0.589	0.829	0.512	0.703	0.769
NCI-H23	0.26	0.371	0.411	0.266	0.247	0.562	0.733	0.833	0.53	0.444	0.481	0.369	0.417	0.651	0.484	0.715	0.375	0.43	0.426
201T	0.839	0.8	0.872	0.727	0.848	1.06	1.03	1.04	1	0.998	1.09	0.944	1.04	0.31	0.295	0.27	0.314	0.342	0.991
NCI-H460	0.335	0.394	0.435	0.216	0.327	0.73	0.792	0.762	0.267	0.874	0.99	0.6	0.471	0.0644	0.0667	0.0599	0.0555	0.0589	0.644
NCI-H661	0.733	0.857	0.83	0.719	0.729	0.553	0.56	0.779	0.634		1.02		0.971	0.94	1.01	0.974	0.74	0.803	1.03
HCC-15	0.692	0.662	0.737	0.697	0.768	0.895	0.903	0.95	0.734	0.755	0.763	0.699	0.869	0.208	0.231	0.244	0.228	0.212	0.729
LCLC-103H	0.677	0.745	0.648	0.543	0.569	1.1	1.13	1.28	1.04	0.909	0.911	0.847	0.699	0.491	0.506	0.49	0.462	0.456	0.994
NCI-H441	0.604	0.525	0.541		0.449	0.527		0.515	0.553	0.651	0.782	0.443	0.507	0.261	0.267	0.276		0.282	0.689
EPLC-272H	0.567	0.681	0.687	0.463	0.294	1.25	1.22	1.02	1.1	0.796	0.835	0.649	0.584	0.24	0.382	0.383	0.424	0.269	
